Source: patent US20210002265A1, “PYRAZOLE DERIVATIVES AS INHIBITORS OF THE WNT SIGNALLING PATHWAY” (Université de Lausanne, priority 2018, published 2021)

Tests used:
[1] = tested on: Wnt pathway (Wnt3a-stimulated) in BT-20 cells; test: TOPFlash reporter assay, Wnt3a activation; type: cell-based; conditions: for Efficacy (%): average efficacy, BT-20 TOPFlash; for Efficacy (%) / IC50: Wnt3a 250 ng/ml; for IC50: average potency, BT-20 cells stably transfected with TOPFlash reporter
Description: A commercial (ChemDiv Inc., San Diego, Calif., US) small molecule library (high-diversity GPCR-targeted compound library containing 1000 compounds selected by ChemDiv focusing on maximizing chemical diversity from the 40′000 GPCR-targeted compound library [see http://www.chemdiv.com, particularly http://www.chemdiv.com/gpcr-target-platform-library-2/]) containing 1000 compounds was screened for Wnt pathway inhibitory effect using the TOPflash assay. […] In a first round of screening, 34 randomly chosen compounds resembling compound 1, but presenting some intravariance were tested for their ability to inhibit the Wnt pathway, using the TOPFLash reporter assay.
(§1) For the screens, BT-20 cells, stably transfected with the TOPFlash reporter plasmid were seeded at 15K cells per well in white tissue-culture-treated 96-well plates (Greiner) and incubated overnight. If needed, the cells were additionally transfected with the pRL-CMV plasmid using the X-tremeGENE HP DNA transfection reagent (Roche) according to the manufacturer's protocol and again incubated overnight. […] The medium was then removed and 12 μl 10% sucrose solution was added to the cells to prevent drying. […] Data was analyzed using the Prism 6 Software (GraphPad).

[2] = tested on: Renilla luciferase expressed under control of CMV promoter; conditions: FIG. 2
Method: (§2) Wnt-3a whole pathway activation (circle); LiCl activation of downstream elements only (square); Renilla, control for cell well-being (triangle).
as §1

[3] = tested on: Wnt pathway downstream part activated by LiCl; conditions: LiCl activation, FIG. 2
Method: as §2, §1

[4] = tested on: active β-catenin in HCC 1395 cells; conditions: 50 μM, FIG. 4
Method: (§3) Cells were seeded to 70-80% confluency in 12-well plates and incubated overnight. The medium was then changed for medium containing compound or DMSO and the cells pre-incubated for 1 h. […] After washing the cells with ice cold PBS, the cells were lysed by addition of 70 μl RIPA buffer (50 mM Tris pH 7.4, 1% Triton X-100, 0.1% SDS, 150 mM NaCl, 1 mM EDTA, 1 mM DTT, protease inhibitors (Roche)) containing phosphatase inhibitors if needed (4 mM NaF, 4 mM Imidazole, 2.3 mM Na2MoO4, 4 mM Na3VO4, 8 mM M C4H4Na2O6*2H2O, 2 mM Na4P2O7, 2 mM β-Glycerophosphate) and shaking 10 min on ice. The cell lysate was collected and centrifuged for 15 min at 16000 g at 4° C. to remove cell debris. The samples were equilibrated using the Bradford method and further separated and analyzed by SDS-PAGE and Western blot respectively.

[5] = tested on: cytoplasmic β-catenin in BT-20 cells; conditions: 50 μM, Wnt3a or LiCl, FIG. 3
Method: as §3

[6] = tested on: total β-catenin in L-cells; conditions: 50 μM, FIG. 4
Method: as §3

DVL2 and DVL3 in L-cells = conditions: 50 μM, FIG. 5
Method: as §3
(§4) The effects of compound 1 on the upper-level phosphoprotein DVL was examined. The phosphoprotein DVL is phosphorylated on over 40 sites upon Wnt-pathway activation, which can be detected as a shift when analysed by electrophoresis.

DVL2 in HCC 1395 cells = conditions: 50 μM, FIG. 5
Method: as §3, §4

BT-20 = conditions: MTT, BT-20, 72 h
Method: (§5) TNBC cell lines and were seeded at previously determined concentrations in 96-well plates and incubated for 24 h. The next day, the medium was replaced with medium containing either compound or the respective amount of DMSO for the controls. The proliferation was measured after 72 h, by addition of a solution of 1 mg/ml thiazolyl blue (Roth) in PBS, further incubation for 2 h-4 h at 37° C., and lysis of the cells by addition of 50 μl DMSO. The absorbance was read at 570 nm using the Victor3 Multilabel Counter (PerkinElmer).

HCC 1395 = conditions: MTT, HCC 1395, 72 h
Method: as §5

HCC 1806 = conditions: MTT, HCC 1806, 72 h
Method: as §5

MDA-MB 231 = conditions: MTT, MDA-MB 231, 72 h
Method: as §5

MDA-MB 468 = conditions: MTT, MDA-MB 468, 72 h
Method: as §5

TNBC cell lines = conditions: different TNBC cell lines, FIG. 8
Method: TNBC cell lines were seeded at previously determined concentrations in 6-well plates and incubated for 24 h. The cells were then treated with the compounds or DMSO only and the colony formation followed daily by visual inspection. Once the colonies were big enough (70-100 cells), the cells were fixed with a solution of 4% PFA in PBS pH 7.4. The colonies were then stained using a solution of 1% Crystal violet and images taken of the individual wells to count the number of colonies. The colony counting and analysis was done using ImageJ.

[7] = In vivo pharmacokinetic profiling and tissue analysis; conditions: tumour bearing mice
Method: An in vivo experiment was performed to get a rough ADME profile and a first impression of the tolerability of the compounds and to determine any acute toxicity. […] Blood samples were taken at regular intervals for studying the kinetics.

[8] = microsomal assay

For `O=C(CCc1cn(-c2ccccc2)nc1-c1ccc2c(c1)OCO2)NCCc1cccs1` [Compound 13], which “Efficacy (%)” value [1] is on record?
The value was 77.0%.

And the IC50 [1]?
The IC50 was 6.5 µM.

Which results are given for `Cc1ccc2[nH]cc(CCNC(=O)CCc3cn(-c4ccccc4)nc3-c3ccc4c(c3)OCO4)c2c1` [Compound 1]?
suppression of Wnt3a-stimulated pathway activation ([1]; Wnt-3a whole pathway activation, FIG. 2): efficient in specific suppression of the Wnt3a-stimulated pathway activation; Efficacy (%) [1]: 86.3%; IC50 [1]: 11 µM; levels of Renilla luciferase (cell well-being control) [2]: not changing the levels of Renilla luciferase; inhibition when downstream part of the pathway is activated by LiCl [3]: do not inhibit; active β-catenin levels [4]: decrease in the active-β catenin levels; accumulation of cytoplasmic β-catenin [5]: essentially recapitulating the results obtained using TopFlash; total β-catenin levels [6]: clear decrease; DVL2 and DVL3 phosphorylation shift upon Wnt3a stimulation (DVL2 and DVL3 in L-cells): clearly inhibited the shift; DVL2 phosphorylation shift upon Wnt3a stimulation (DVL2 in HCC 1395 cells): clearly inhibited the shift; Efficiency (%) (BT-20): 90%; IC50 (BT-20): 15 µM; Efficiency (%) (HCC 1395): 90%; IC50 (HCC 1395): 8 µM; Efficiency (%) (HCC 1806): 79%; IC50 (HCC 1806): 18 µM; Efficiency (%) (MDA-MB 231): 63%; IC50 (MDA-MB 231): 6 µM; Efficiency (%) (MDA-MB 468): 93%; IC50 (MDA-MB 468): 12 µM; colony formation (TNBC cell lines): inhibition of colony formation; mean concentration achieved in the breast [7]: around 20 μM; Tissue concentration, Breast [7]: 92.1 µM; Tissue concentration, Faeces [7]: 0.1 µM; Tissue concentration, Intestine [7]: 44.0 µM; Tissue concentration, Liver [7]: 136.9 µM; Tissue concentration, Lung [7]: 6.2 µM; Tissue concentration, Plasma [7]: 3.9 µM; Tissue concentration, Tumor [7]: 154.3 µM; Tissue concentration, Urine [7]: 6.6 µM; CYP stability (% compound after 60 min) [8]: 33%; CYP UGT stability (% compound after 60 min) [8]: 49%

Which results are given for `O=C(Nc1ccccc1)N1CCC(n2nc(-c3ccccc3)cc2-c2ccccc2)CC1` [Compound 26]?
Efficacy (%) [1]: 72.7%; IC50 [1]: 16.5 µM

With `Cc1ccccc1Cn1cc(-c2ccncc2)cc1C(=O)N1CCN(c2ccccc2)CC1` [Compound 24] as the compound, how does the “Efficacy (%)” value [1] read?
The value was 94.8%.

And the IC50 [1]?
The IC50 was 18.3 µM.

What about the “mean concentration achieved in the breast” value [7] of the same compound?
The value was “around 8 μM”.

And the “Tissue concentration, Breast” value [7]?
The value was 8.6 µM.

And the “Tissue concentration, Faeces” value [7]?
Its value is 0.1 µM.

What about the “Tissue concentration, Intestine” value [7] of the same compound?
Its value is 0.3 µM.

And the “Tissue concentration, Liver” value [7]?
The value was 0.3 µM.

And the “Tissue concentration, Lung” value [7]?
The value was 0.3 µM.

And the “Tissue concentration, Plasma” value [7]?
Its value is 0.3 µM.

And the “Tissue concentration, Tumor” value [7]?
The value was 0.3 µM.

And the “Tissue concentration, Urine” value [7]?
Its value is 0.1 µM.

What about the “CYP stability (% compound after 60 min)” value [8] of the same compound?
The value was 67%.

And the “CYP UGT stability (% compound after 60 min)” value [8]?
The value was 76%.

With `O=C(CCc1cn(-c2ccccc2)nc1-c1ccc2c(c1)OCO2)NCCc1ccccc1` [Compound 11] as the compound, how does the “Efficacy (%)” value [1] read?
Its value is 88.4%.

And the IC50 [1]?
The IC50 was 5.2 µM.

What does the source list for `O=C(CCc1cn(-c2ccccc2)nc1-c1ccc2c(c1)OCO2)NCCc1ccco1` [Compound 7]?
Efficacy (%) [1]: 85.0%; IC50 [1]: 15.2 µM
